{
  "source": "paper PMC5657534",
  "about": "(Nature chemical biology, 2017)",
  "biological_target": "ClbH (full-length) (Escherichia coli, UniProt Q0P7J8)",
  "sequence (Q0P7J8 1-1598)": "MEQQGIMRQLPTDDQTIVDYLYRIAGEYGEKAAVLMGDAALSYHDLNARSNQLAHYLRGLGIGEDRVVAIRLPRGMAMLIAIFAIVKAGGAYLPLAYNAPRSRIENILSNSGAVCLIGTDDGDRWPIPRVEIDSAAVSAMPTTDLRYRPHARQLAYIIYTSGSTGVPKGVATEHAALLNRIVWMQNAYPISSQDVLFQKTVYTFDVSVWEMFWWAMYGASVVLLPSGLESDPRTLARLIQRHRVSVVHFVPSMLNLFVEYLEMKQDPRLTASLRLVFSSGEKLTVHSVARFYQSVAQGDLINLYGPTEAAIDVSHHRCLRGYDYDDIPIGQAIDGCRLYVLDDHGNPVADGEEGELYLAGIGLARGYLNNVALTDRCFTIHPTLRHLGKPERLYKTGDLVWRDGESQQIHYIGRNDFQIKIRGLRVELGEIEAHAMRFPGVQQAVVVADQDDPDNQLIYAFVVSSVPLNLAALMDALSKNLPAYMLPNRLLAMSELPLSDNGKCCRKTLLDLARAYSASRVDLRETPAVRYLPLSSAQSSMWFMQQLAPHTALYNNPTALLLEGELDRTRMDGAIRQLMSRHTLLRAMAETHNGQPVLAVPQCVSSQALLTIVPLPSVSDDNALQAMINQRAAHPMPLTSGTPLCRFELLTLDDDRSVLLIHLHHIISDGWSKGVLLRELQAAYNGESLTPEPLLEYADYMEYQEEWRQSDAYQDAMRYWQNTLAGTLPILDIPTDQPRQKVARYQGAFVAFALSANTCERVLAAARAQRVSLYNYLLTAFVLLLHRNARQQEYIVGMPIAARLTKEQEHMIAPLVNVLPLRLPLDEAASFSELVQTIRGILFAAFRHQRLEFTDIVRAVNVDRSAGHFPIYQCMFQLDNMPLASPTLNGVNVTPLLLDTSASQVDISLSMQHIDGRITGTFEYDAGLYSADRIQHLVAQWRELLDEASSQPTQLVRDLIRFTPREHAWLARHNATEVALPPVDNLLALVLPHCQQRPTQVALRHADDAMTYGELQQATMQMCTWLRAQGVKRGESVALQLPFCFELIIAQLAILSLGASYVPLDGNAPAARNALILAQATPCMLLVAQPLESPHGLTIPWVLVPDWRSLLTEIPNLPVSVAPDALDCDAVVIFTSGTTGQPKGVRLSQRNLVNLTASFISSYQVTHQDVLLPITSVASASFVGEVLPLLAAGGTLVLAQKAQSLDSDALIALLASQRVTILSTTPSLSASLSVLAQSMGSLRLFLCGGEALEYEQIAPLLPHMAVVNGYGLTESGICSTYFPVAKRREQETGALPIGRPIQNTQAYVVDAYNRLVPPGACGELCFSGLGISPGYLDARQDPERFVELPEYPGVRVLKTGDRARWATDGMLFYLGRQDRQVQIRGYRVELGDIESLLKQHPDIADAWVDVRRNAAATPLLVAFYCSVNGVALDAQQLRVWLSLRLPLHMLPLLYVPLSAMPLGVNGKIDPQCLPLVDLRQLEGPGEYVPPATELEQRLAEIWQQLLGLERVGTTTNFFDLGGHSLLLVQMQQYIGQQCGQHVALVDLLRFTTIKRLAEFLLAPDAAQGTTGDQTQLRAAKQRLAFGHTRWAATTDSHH",
  "experiment": "ATP-[…]PPi exchange",
  "type": "biochemical",
  "settings": "Mg2+, pH 8.3, room temperature, 1 mM amino acid",
  "data": [
    {"smiles": "N[C@@H](CO)C(=O)O", "note": "[L-Ser]", "values": [
      {"measurement": "ATP-[32P]PPi exchange", "result": "full-length ClbH activated L-Ser and SAM (Fig. 1b)"}
    ]}
  ]
}
